Assays:
Type in all cases: in vivo
sorghum = test: Herbicidal activity test against upland field weeds (foliar treatment test); design: key to Foliar treatment herbicidal activity, Sorghum: 0 (no control); 100 (complete control); conditions: 50 g ai/ha, scale 0-100; for plant injury at 50 g/ha: Sorghum
In short: (§1)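 Greenhouse-grown plants (30±5 °C, 14/10 h light/dark) foliar hand-sprayed with compound in 50% acetone, 0.1% Tween-20 at 50 or 75 g a.i./ha. Control visually scored 0 (none) to 100 (complete) versus untreated after 14 days, or 21 days if needed.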

velvetleaf [1] = test: Herbicidal activity test against upland field weeds (soil treatment test); design: key to Soil treatment herbicidal activity, velvet leaf: 0 (no control); 100 (complete control); conditions: 50 g ai/ha, scale 0 (no control) to 100 (complete control)
In short: (§2)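 Pre-emergence soil surface spray, day after sowing, into sandy loam pots with fertilizer; compounds at 50 or 75 g a.i./ha in 50% acetone, 0.1% Tween-20. Greenhouse at 30±5 °C, 14/10 h light/dark; visual control rated 0–100 against untreated after 14 days (21 if needed).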

barnyard grass = test: as above; design: key to Soil treatment herbicidal activity, barnyard grass: 0 (no control); 100 (complete control); conditions: 50 g ai/ha, scale 0 (no control) to 100 (complete control)
In short: as §2

rice = test: Phytotoxicity test for upland field crops (foliar treatment test); design: key: 0 (no harm); 9 (complete withered)
In short: (§3)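 Phytotoxicity was rated on a 0 (no harm) to 9 (complete withered) scale relative to untreated plants, 7 and 14 days after spraying. Crops had been grown in fertilized horticultural soil under greenhouse conditions before foliar application at 19˜300 g a.i./ha.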

cotton = test: as above; design: key: 0 (no harm); 9 (complete withered)
In short: as §3

wheat = test: as above; design: key: 0 (no harm); 9 (complete withered)
In short: as §3

corn = test: as above; design: key: 0 (no harm); 9 (complete withered)
In short: as §3

soybean = test: as above; design: key: 0 (no harm); 9 (complete withered)
In short: as §3

crabgrass = test: Herbicidal activity test against upland field weeds (soil treatment test); design: key to Soil treatment herbicidal activity, Crabgrass: 0 (no control); 100 (complete control); conditions: 50 g ai/ha, scale 0 (no control) to 100 (complete control)
In short: as §2

quack grass [2] = test: Herbicidal activity test against upland field weeds (foliar treatment test); design: key to Foliar treatment herbicidal activity, quack grass: 0 (no control); 100 (complete control); conditions: 50 g ai/ha, scale 0-100
In short: as §1

velvetleaf [3] = test: as above; conditions: Abutilon theophrasti, 50 g ai/ha, scale 0-100, read-out: Foliar treatment herbicidal activity, velvet leaf
In short: as §1

cocklebur = test: as above; conditions: Xanthium strumarium, 50 g ai/ha, scale 0-100
In short: as §1

quack grass [4] = test: Herbicidal activity test against upland field weeds (soil treatment test); design: key to Soil treatment herbicidal activity, quack grass: 0 (no control); 100 (complete control); conditions: 50 g ai/ha, scale 0 (no control) to 100 (complete control)
In short: as §2

[5] = 50 g ai/ha, Rice (7 days after treatment)
[6] = 50 g ai/ha, Rice (14 days after treatment)
[7] = 100 g ai/ha, Rice (7 days after treatment)
[8] = 100 g ai/ha, Rice (14 days after treatment)
[9] = 50 g ai/ha, Cotton (7 days after treatment)
[10] = 50 g ai/ha, Cotton (14 days after treatment)
[11] = 100 g ai/ha, Cotton (7 days after treatment)
[12] = 100 g ai/ha, Cotton (14 days after treatment)
[13] = 50 g ai/ha, Wheat (7 days after treatment)
[14] = 50 g ai/ha, Wheat (14 days after treatment)
[15] = 100 g ai/ha, Wheat (7 days after treatment)
[16] = 100 g ai/ha, Wheat (14 days after treatment)
[17] = 50 g ai/ha, Corn (7 days after treatment)
[18] = 50 g ai/ha, Corn (14 days after treatment)
[19] = 100 g ai/ha, Corn (7 days after treatment)
[20] = 100 g ai/ha, Corn (14 days after treatment)
[21] = 50 g ai/ha, Soybean (7 days after treatment)
[22] = 50 g ai/ha, Soybean (14 days after treatment)
[23] = 100 g ai/ha, Soybean (7 days after treatment)
[24] = 100 g ai/ha, Soybean (14 days after treatment)

Row | Compound | Soil treatment herbicidal activity, velvet leaf (velvetleaf [1]) | Soil treatment herbicidal activity, barnyard grass (barnyard grass) | Foliar treatment phytotoxicity, Rice (rice; [5]) | Foliar treatment phytotoxicity, Rice (rice; [6]) | Foliar treatment phytotoxicity, Rice (rice; [7]) | Foliar treatment phytotoxicity, Rice (rice; [8]) | Foliar treatment phytotoxicity, Cotton (cotton; [9]) | Foliar treatment phytotoxicity, Cotton (cotton; [10]) | Foliar treatment phytotoxicity, Cotton (cotton; [11]) | Foliar treatment phytotoxicity, Cotton (cotton; [12]) | Foliar treatment phytotoxicity, Wheat (wheat; [13]) | Foliar treatment phytotoxicity, Wheat (wheat; [14]) | Foliar treatment phytotoxicity, Wheat (wheat; [15]) | Foliar treatment phytotoxicity, Wheat (wheat; [16]) | Foliar treatment phytotoxicity, Corn (corn; [17]) | Foliar treatment phytotoxicity, Corn (corn; [18]) | Foliar treatment phytotoxicity, Corn (corn; [19]) | Foliar treatment phytotoxicity, Corn (corn; [20]) | Foliar treatment phytotoxicity, Soybean (soybean; [21]) | Foliar treatment phytotoxicity, Soybean (soybean; [22]) | also measured
1 | Cn1nnc(COc2nc(C(F)(F)F)ccc2C(=O)Nc2nnnn2C)n1 [Compound No. 2-1, N-(1-methyl-1H-tetrazol-5-yl)-2-((2-methyl-2H-tetrazol-5-yl)methoxy)-6-(trifluoromethyl)nicotinamide] | 0 | 0 | 4 | 3 | 5 | 4 | 6 | 8 | 6 | 9 | 0 | 0 | 0 | 0 | 2 | 1 | 2 | 2 | 5 | 6 | Foliar treatment herbicidal activity, Sorghum (sorghum): 0; Foliar treatment phytotoxicity, Soybean (soybean; [23]): 6; Foliar treatment phytotoxicity, Soybean (soybean; [24]): 6; Soil treatment herbicidal activity, Crabgrass (crabgrass): 0; Foliar treatment herbicidal activity, quack grass (quack grass [2]): 0; pest or weed control at 50 g/ha (velvetleaf [3]): 30%; pest or weed control at 50 g/ha (cocklebur): 60%; Soil treatment herbicidal activity, quack grass (quack grass [4]): 0
2 | Cn1nnc(COCc2nc(C(F)(F)F)ccc2C(=S)Nc2nnnn2C)n1 [Compound No. 2-106, N-(1-methyl-1H-tetrazol-5-yl)-2-(((2-methyl-2H-tetrazol-5-yl)methoxy)methyl)-6-(trifluoromethyl)pyridin-3-carbothioamide] | 100 | 100 | 6 | 7 | 6 | 8 | 5 | 9 | 5 | 9 | 0 | 0 | 0 | 0 | 5 | 4 | 6 | 7 | 5 | 8 | plant injury at 50 g/ha (sorghum): 70%; Foliar treatment phytotoxicity, Soybean (soybean; [23]): 6; Foliar treatment phytotoxicity, Soybean (soybean; [24]): 8; Soil treatment herbicidal activity, Crabgrass (crabgrass): 100; Foliar treatment herbicidal activity, quack grass (quack grass [2]): 0; pest or weed control at 50 g/ha (velvetleaf [3]): 95%; pest or weed control at 50 g/ha (cocklebur): 95%; Soil treatment herbicidal activity, quack grass (quack grass [4]): 0
3 | Cn1nnc(COCc2nc(C(F)(F)F)ccc2C(=O)Nc2nnnn2C)n1 [Compound No. 2-59, N-(1-methyl-1H-tetrazol-5-yl)-2-(((2-methyl-2H-tetrazol-5-yl)methoxy)methyl)-6-(trifluoromethyl)nicotinamide] | 100 | 100 | 3 | 4 | 3 | 6 | 3 | 8 | 3 | 9 | 0 | 0 | 0 | 0 | 0 | 2 | 3 | 4 | 5 | 7 | plant injury at 50 g/ha (sorghum): 98%; Foliar treatment phytotoxicity, Soybean (soybean; [23]): 5; Foliar treatment phytotoxicity, Soybean (soybean; [24]): 7; pest or weed control at 50 g/ha (crabgrass; Digitaria sanguinalis): 98%; Foliar treatment herbicidal activity, quack grass (quack grass [2]): 0; pest or weed control at 50 g/ha (velvetleaf [3]): 98%; pest or weed control at 50 g/ha (cocklebur): 98%; pest or weed control at 50 g/ha (quack grass [4]): 20%
4 | Cn1nnc(COCc2nc(C(F)(F)C(F)(F)F)ccc2C(=O)Nc2nnnn2C)n1 [Compound No. 2-81, N-(1-methyl-1H-tetrazol-5-yl)-2-(((2-methyl-2H-tetrazol-5-yl)methoxy)methyl)-6-(perfluoroethyl)nicotinamide] | 100 | 100 | 5 | 3 | 6 | 5 | 4 | 9 | 4 | 9 | 0 | 0 | 0 | 0 | 2 | 1 | 2 | 1 | 5 | 6 | plant injury at 50 g/ha (sorghum): 40%; Foliar treatment phytotoxicity, Soybean (soybean; [23]): 6; Foliar treatment phytotoxicity, Soybean (soybean; [24]): 7; Soil treatment herbicidal activity, Crabgrass (crabgrass): 100; Foliar treatment herbicidal activity, quack grass (quack grass [2]): 0; pest or weed control at 50 g/ha (velvetleaf [3]): 90%; pest or weed control at 50 g/ha (cocklebur): 95%; Soil treatment herbicidal activity, quack grass (quack grass [4]): 0
